In patent US20190352276A1, “INHIBITORS OF BRUTON'S TYROSINE KINASE” (Joint Stock Company "Biocad", priority 2016, published 2019):

Experiment: Chemical stability in artificial gastric fluid (SGF without enzymes); also: time not given here
Conditions: 10 μM in SGF without enzymes, pH=1.4, 37° C.

Compound	Amount of substance in the sample in % (chemical stability)
C=CC(=O)N1CCC[C@@H](n2nc(-c3ccc(Oc4ccncc4)cc3)c3cncc(C#N)c32)C1 [BCD-BTK - 123, (R)-1-(1-acryloylpiperidin-3-yl)-3-(4(pyridin-4-yloxy)phenyl)-1H-pyrazolo[4,3-c]pyridin-7-carbonitrile]	97%
C=CC(=O)N1CCC[C@@H](n2nc(-c3ccc(C(=O)Nc4cccc(F)n4)cc3)c3cncc(F)c32)C1 [BCD-BTK - 248, (R)-4-(1-(1-acryloylpiperidin-3-yl)-7-fluoro-1H-pyrazolo[4,3-c]pyridin-3-yl)-N-(6-fluoropyridin-2-yl)benzamide]	100%
C=CC(=O)N1CCC[C@@H](n2nc(-c3ccc(-n4ccc(=O)cc4)cc3F)c3cncc(Cl)c32)C1 [BCD-BTK -204, (R)-1-(4-(1-(1-acryloylpiperidin-3-yl)-7-chloro-1H-pyrazolo[4,3-c]pyridin-3-yl)-3-fluorophenyl)pyridin-4(1H)-one]	100%
C=CC(=O)N1CCC[C@@H](n2nc(-c3ccc(C(=O)Nc4cccc(F)n4)cc3)c3cncc(Cl)c32)C1 [BCD-BTK-225, (R)-4-(1-(1-acryloylpiperidin-3-yl)-7-chloro-1H-pyrazolo[4,3-c]pyridin-3-yl)-N-(6-fluoropyridin-2-yl)benzamide]	100%
C=CC(=O)N1CCC[C@@H](n2nc(-c3ccc(C(=O)Nc4cc(C(F)(F)CCC)ccn4)cc3)c3c(N)ncc(Cl)c32)C1 [BCD-BTK - 254, (R)-4-(1-(1-acryloylpiperidin-3-yl)-4-amino-7-chloro-1H-pyrazolo[4,3-c]pyridin-3-yl)-N-(4-(1,1-difluorobutyl)pyridin-2-yl)benzamide]	100%
C=CC(=O)N1CCC[C@@H](n2nc(-c3ccc(C(=O)Nc4ncccc4F)cc3)c3cncc(F)c32)C1 [BCD-BTK - 249, (R)-4-(1-(1-acryloylpiperidin-3-yl)-7-fluoro-1H-pyrazolo[4,3-c]pyridin-3-yl)-N-(3-fluoropyridin-2-yl)benzamide]	100%
C=CC(=O)N1CCC[C@@H](n2nc(-c3ccc(Oc4ccncc4)cc3)c3c(N)ncc(Cl)c32)C1 [BCD-BTK - 139, (R)-1-(1-acryloylpiperidin-3-yl)-7-chloro-3-(4-(pyridin-4-yloxy)phenyl)-1H-pyrazolo[4,3-c]pyridin-4-amine]	100%
C=CC(=O)N1CCC[C@@H](n2nc(-c3ccc(Oc4ccncc4)cc3)c3cncc(F)c32)C1 [BCD-BTK -211, (R)-1-(3-(7-fluoro-3-(4-(pyridin-4-yloxy)phenyl)-1H-pyrazolo[4,3-c]pyridin-1-yl)piperidin-1-yl)prop-2-en-1-one]	100%
CC#CC(=O)N1CCC[C@@H](n2nc(-c3ccc(C(=O)Nc4ccccn4)cc3)c3c(N)ncc(Cl)c32)C1 [BCD-BTK - 295, (R)-4-(4-amino-1-(1-(but-2-ynoyl)piperidin-3-yl)-7-chloro-1H-pyrazolo[4,3-c]pyridin-3-yl)-N-(pyridin-2-yl)benzamide]	89.5%
C=CC(=O)N1CC[C@@H](n2nc(-c3ccc(C(=O)Nc4ccccn4)cc3)c3cncc(Cl)c32)C1 [BCD-BTK-275, (R)-4-(1-(1-acryloylpyrrolidin-3-yl)-7-chloro-1H-pyrazolo[4,3-c]pyridin-3-yl)-N-(pyridin-2-yl)benzamide]	100%
C=CC(=O)N1CCC[C@@H](n2nc(-c3ccc(Oc4cccnc4C#N)cc3)c3cncc(C#N)c32)C1 [BCD-BTK -216, (R)-1-(1-acryloylpiperidin-3-yl)-3-(4-(2-cyanopyridin-3-yloxy)phenyl)-1H-pyrazolo[4,3-c]pyridine-7-carbonitrile]	96.3%
CC#CC(=O)N1CC(n2nc(-c3ccc(Oc4ccncc4)cc3)c3cncc(Cl)c32)C1 [BCD-BTK - 281, 1-(3-(7-chloro-3-(4-(pyridin-4-yloxy)phenyl)-1H-pyrazolo[4,3-c]pyridin-1-yl)azetidin-1-yl)but-2-yn-1-one]	100%
CC#CC(=O)N1CC[C@H](Cn2nc(-c3ccc(C(=O)Nc4ccccn4)cc3)c3cncc(Cl)c32)C1 [BCD-BTK - 287, (S)-4-(1-((1-(but-2-ynoyl)pyrrolidin-3-yl)methyl)-7-chloro-1H-pyrazolo[4,3-c]pyridin-3-yl)-N-(pyridin-2-yl)benzamide]	100%
C=CC(=O)N1CCC[C@@H](n2nc(-c3ccc(-n4ccc(=O)c(C#N)c4)cc3)c3cncc(Cl)c32)C1 [BCD-BTK -208, (R)-1-(4-(1-(1-acryloylpiperidin-3-yl)-7-chloro-1H-pyrazolo[4,3-c]pyridin-3-yl)phenyl)-4-oxo-1,4-dihydropyridine-3-carbonitrile]	100%
C=CC(=O)N1CCC[C@@H](n2nc(-c3ccc(C(=O)Nc4cccc(F)n4)cc3)c3c(N)ncc(Cl)c32)C1 [BCD-BTK - 250, (R)-4-(1-(1-acryloylpiperidin-3-yl)-4-amino-7-chloro-1H-pyrazolo[4,3-c]pyridin-3-yl)-N-(6-fluoropyridin-2-yl)benzamide]	100%
C=CC(=O)N1CCC[C@@H](n2nc(-c3ccc(C(=O)Nc4cc(C(F)(F)CCC)ccn4)cc3)c3cncc(Cl)c32)C1 [BCD-BTK - 252, (R)-4-(1-(1-acryloylpiperidin-3-yl)-7-chloro-1H-pyrazolo[4,3-c]pyridin-3-yl)-N-(4-(1,1-difluorobutyl)pyridin-2-yl)benzamide]	94.4%
C=CC(=O)N1CCC[C@@H](n2nc(-c3ccc(Oc4cccnc4C#N)cc3)c3cncc(Cl)c32)C1 [BCD-BTK -218, 3-(4-{7-chloro-1-[1-(prop-2-enoyl)piperidin-3-yl]-1H-pyrazolo[4,3-c]pyridin-3-yl}phenoxy)pyridine-2-carbonitrile]	96%
C=CC(=O)N1CCC[C@@H](n2nc(-c3ccc(Oc4ccncc4C#N)cc3)c3cncc(C#N)c32)C1 [BCD-BTK -213, (R)-1-(1-acryloylpiperidin-3-yl)-3-(4-(3-cyanopyridin-4-yloxy)phenyl)-1H-pyrazolo[4,3-c]pyridine-7-carbonitrile]	97.4%
C=CC(=O)N1CCC[C@@H](Cn2nc(-c3ccc(C(=O)Nc4ccccn4)cc3)c3cncc(Cl)c32)C1 [BCD-BTK-279, (R)-4-(1-((1-acryloylpiperidin-3-yl)methyl)-7-chloro-1H-pyrazolo[4,3-c]pyridin-3-yl)-N-(pyridin-2-yl)benzamide]	100%
C=CC(=O)N1CCC[C@@H](n2nc(-c3cnc(C(=O)Nc4cc(C(F)(F)CCC)ccn4)nc3)c3cncc(Cl)c32)C1 [BCD-BTK - 292, (R)-5-(1-(1-acryloylpiperidin-3-yl)-7-chloro-1H-pyrazolo[4,3-c]pyridin-3-yl)-N-(4-(1,1-difluorobutyl)pyridin-2-yl)pyrimidine-2-carboxamide]	100%
C=CC(=O)N1CCC[C@@H](n2nc(-c3ccc(C(=O)Nc4ccc(F)cn4)cc3)c3cncc(Cl)c32)C1 [BCD-BTK -212, (R)-4-(1-(1-acryloylpiperidin-3-yl)-7-chloro-1H-pyrazolo[4,3-c]pyridin-3-yl)-N-(5-fluoropyridin-2-yl)benzamide]	100%
